Among the data in patent US10100077B2, “6-aryl-9-glycosylpurines and use thereof” (UNIVERZITA PALACKEHO V OLOMOUCI, priority 2014, dated 2018) are GI50 and IC50 values, retold here.

Each structure is given as a SMILES string.

Series [1] in a line: Calcein AM cytotoxicity assay, K562. The class given is cell-based, human. The conditions noted are these: human, K562 erythroleukemia cells. In outline:
(§1)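 K562, MCF-7 and NIH3T3 cells (10^4/well) in DMEM with 10% FBS were preincubated for 24 hrs, then given six 4-fold dilutions, usually from 166.7 μM, in duplicate for 72 hrs at 37° C. Viability was read by Calcein AM fluorescence after 1 hour, with GI50 from survival relative to control.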

A short description of series [2]: Calcein AM cytotoxicity assay, NIH3T3. It counts as cell-based, mouse. As to conditions: mouse, NIH3T3 fibroblasts. An outline of the steps: as §1
The subject of series [3] is skin fibroblasts BJ and keratinocytes HaCaT. Description: MTT in vitro cytotoxicity test for skin cells. It counts as cell-based. The conditions noted are these: Homo sapiens; MTT, 72 hour treatment, BJ and HaCaT, maximal concentration 50 microM. An outline of the steps:
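BJ fibroblasts and HaCaT keratinocytes (~5,000 cells/well, seeded 24 h prior) exposed 72 h to sixfold dilutions from 50 microM; DMSO vehicle as negative control. MTT added at 0.5 mg/ml final for 3 h, formazan dissolved in DMSO, absorbance read at 570 nm (640 nm reference). IC50 taken from dose-response curves.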

For the molecule `COc1cccc(CNc2ncnc3c2ncn3[C@@H]2O[C@H](CO)[C@@H](O)[C@@H]2O)c1` [6-(3-methoxybenzylamino)-9-β-D-arabinofuranosylpurine], the concentration for 50% growth inhibition (GI50) at 72 h in series [1] and in series [2] was above 100 µM in each case. In addition, the 50% inhibitory concentration (IC50) in series [3] is above 50 µM.

One may read the GI50 as the concentration that inhibits growth by half. By IC50 is commonly meant the concentration needed to halve the response being measured. A high value points to lower potency.
